Our source for the inhibition, Activity and inhibition in vivo values is ChEMBL document CHEMBL1144583, “Specificities of acetoxy derivatives of coumarins, biscoumarins, chromones, flavones, isoflavones and xanthones for acetoxy drug: protein transacetylase” (2007).

By inhibition is commonly meant how much of the control response was suppressed. The term inhibition in vivo denotes the change of the read-out against control, counted positive when it falls. A high value points to strong suppression.

Experiment [1] is filed under the species Rattus norvegicus. The experiment in a line: Effect on TAase activity assessed as inhibition of GST in liver microsome at 50 uM. It is filed as microsomes. Background: Microsomes from liver hold many membrane-bound enzymes, among them those of drug oxidation.
For experiment [2], the species on record is Rattus norvegicus. In words: Effect on TAase activity assessed as activation of liver microsomal NADPH cytochrome P450 at 5 uM.
The species named for experiment [3] is Rattus norvegicus. The experiment in a line: Inhibition of liver microsomal EROD at 25 uM.
The subject of another experiment is Bone marrow cell. The experiment in a line: Inhibition of micronuclei formation in benzene-induced in Wistar Albino rat bone marrow cells at 300 mg/ kg, ip after 1 hr. The following applies: route intraperitoneal. It is filed as functional.

Turning to `CCCCCCC(c1cc(=O)oc2cc(OC(C)=O)ccc12)S(=O)(=O)c1ccccc1` (stereo unspecified), the inhibition in the experiment filed under Rattus norvegicus [1] turned out to be 3.96%. Besides, the Activity in the experiment filed under Rattus norvegicus [2] amounted to 7.17%.
For the compound `CC(=O)Oc1ccc2c(OC(C)=O)c(Cc3c(OC(C)=O)c4ccc(OC(C)=O)c(OC(C)=O)c4oc3=O)c(=O)oc2c1OC(C)=O`, the inhibition in the experiment listed under Rattus norvegicus [3] amounted to 39.3%; in the experiment listed under Rattus norvegicus [1], 10.1%. Further, the Activity in the experiment filed under Rattus norvegicus [2] is 17.2%. Further, in the experiment with Bone marrow cell, the inhibition in vivo at 300 mg/kg stood at 37.9%.
Regarding `CC(=O)Oc1ccc2c(=O)c(-c3ccccc3)c(C)oc2c1`, the inhibition in the experiment filed under Rattus norvegicus [3] is 16.1%; in the experiment filed under Rattus norvegicus [1] it was 3.1%. The Activity in the experiment filed under Rattus norvegicus [2] came out at 7.1%.
Take `CC(=O)Oc1ccc2c(c1)OC(=O)CC2c1ccccc1` (stereo unspecified): the inhibition in the experiment listed under Rattus norvegicus [1] turned out to be 3.31%. In the experiment listed under Rattus norvegicus [2], the Activity is 6.77%.
As to `CC(=O)Oc1ccc2c(=O)c(-c3ccccc3)coc2c1OC(C)=O`, the inhibition came out at 32.4% in the experiment filed under Rattus norvegicus [3] and 6.89% in the experiment filed under Rattus norvegicus [1]. Besides, the Activity in the experiment listed under Rattus norvegicus [2] worked out at 14.5%.
Taken in the same sequence, the figures for `CC(=O)Oc1ccc2c(=O)c(C(C)=O)c(C)oc2c1` were 31.5%, 6.03% and 15.1%.
`CC(=O)Oc1ccc2c(C(C/C=C/C#CC(C)(C)C)S(=O)(=O)c3ccccc3)cc(=O)oc2c1` (stereo unspecified): the inhibition in the experiment filed under Rattus norvegicus [1] came to 4.01%. Moreover, the Activity in the experiment listed under Rattus norvegicus [2] is 7.6%.
For the compound `CC(=O)Oc1ccc2c(C(C/C=C/C#CC(C)(C)C)S(=O)(=O)c3ccccc3)cc(=O)oc2c1OC(C)=O` (stereo unspecified), the inhibition in the experiment listed under Rattus norvegicus [1] was 10.4%. Also, the Activity in the experiment filed under Rattus norvegicus [2] worked out at 15.9%.
Taken in the same sequence, the figures for `CC(=O)Oc1ccc2c(=O)c(C(C)=O)c(C)oc2c1OC(C)=O` were 15.3% and 27.6%.
In the case of `CC(=O)Oc1ccc2c(C)cc(=O)oc2c1`, the results for the inhibition in the experiment listed under Rattus norvegicus [3] and in the experiment filed under Rattus norvegicus [1] were 30.8% and 7.1%, respectively. In addition, the Activity in the experiment listed under Rattus norvegicus [2] is 14.5%. Besides, in the experiment on Bone marrow cell, the inhibition in vivo at 300 mg/kg was 44.6%.
As for `CC(=O)Oc1ccc2c(=O)cc(-c3ccccc3)oc2c1`, the figures for the inhibition in the experiment filed under Rattus norvegicus [3] and in the experiment listed under Rattus norvegicus [1] were 16.4% and 3.6%, respectively. The Activity in the experiment filed under Rattus norvegicus [2] is 6.9%.
Turning to `CC(=O)Oc1ccc2c(C)cc(=O)oc2c1OC(C)=O`, the inhibition in the experiment filed under Rattus norvegicus [3] came out at 58.4%; in the experiment listed under Rattus norvegicus [1], 15.2%. For the same compound, in the experiment listed under Rattus norvegicus [2], the Activity was found to be 25.8%. In the experiment on Bone marrow cell, this compound yielded an inhibition in vivo at 300 mg/kg of 65%.
As for `CC(=O)Oc1cc(OC(C)=O)c2c(=O)c(C(C)=O)c(C)oc2c1`, the inhibition in the experiment listed under Rattus norvegicus [1] worked out at 6.68%. Also, the Activity in the experiment listed under Rattus norvegicus [2] came to 16.7%.
Taken in the same sequence, the figures for `CC(=O)Oc1cccc2oc3ccccc3c(=O)c12` were 3.43% and 5.06%.
Regarding `CC(=O)Oc1ccc(OC(C)=O)c2c(=O)c3ccccc3oc12`, the inhibition in the experiment filed under Rattus norvegicus [3] came to 41.9%; in the experiment listed under Rattus norvegicus [1], 12.7%. The Activity in the experiment filed under Rattus norvegicus [2] was 21.7%.
For the compound `CC(=O)Oc1cc2c(=O)oc3c(OC(C)=O)c(OC(C)=O)cc4c(=O)oc(c1OC(C)=O)c2c34` [ELLAGIC ACID TETRAACETATE], in the experiment filed under Rattus norvegicus [1], the inhibition worked out at 10.1%. Besides, the Activity in the experiment listed under Rattus norvegicus [2] was 16.1%. Moreover, at 300 mg/kg the inhibition in vivo in the experiment on Bone marrow cell was 39.6%.
As for `CC(=O)Oc1cc(C(C)=O)c2c(C)cc(=O)oc2c1`, the inhibition in the experiment filed under Rattus norvegicus [1] was 7.65%. Moreover, in the experiment listed under Rattus norvegicus [2], the Activity amounted to 15.6%.
